The numbers were not newly measured in patent US20120165520A1, “PROCESS FOR THE SYNTHESIS OF PRODRUGS OF OPIOIDS” (priority 2010, published 2012), which cites them from elsewhere.

Where only a bound is given, the exact number is not on record here.

Assay in data set [1]: not given
This is another data set of the same source.

Regarding `CCC1(c2cccc(O)c2)CCCCN(C)C1` (centres unmarked) [Meptazinol, meptazinol], the oral bioavailability is given as less than 10%.

As for `COc1ccc2c3c1O[C@H]1[C@@H](O)CC[C@H]4[C@@H](C2)N(C)CC[C@@]341` [dihydrocodeine], the “fraction of an oral dose converted to dihydromorphine” value in data set [1] was “less than 2%”.
